Reference: ChEMBL document CHEMBL3352020, “Targeting matrix metalloproteinases: exploring the dynamics of the s1' pocket in the design of selective, small molecule inhibitors” (J Med Chem, 2014)

Assays:
[1] = target: 72 kDa type IV collagenase (Homo sapiens, UniProt P08253); experiment: Inhibition of MMP2 (unknown origin)
[2] = target: Matrix metalloproteinase-9 (Homo sapiens, UniProt P14780); experiment: Inhibition of MMP9 (unknown origin)
Neutrophil collagenase = Neutrophil collagenase (Homo sapiens, UniProt P22894); experiment: Inhibition of MMP8 (unknown origin)
Stromelysin-1 = Stromelysin-1 (Homo sapiens, UniProt P08254); experiment: Inhibition of MMP3 (unknown origin)
Interstitial collagenase = target: T1, Interstitial collagenase (Homo sapiens, UniProt P03956); experiment: Inhibition of MMP1 (unknown origin)
T1 sequence (P03956 whole entry): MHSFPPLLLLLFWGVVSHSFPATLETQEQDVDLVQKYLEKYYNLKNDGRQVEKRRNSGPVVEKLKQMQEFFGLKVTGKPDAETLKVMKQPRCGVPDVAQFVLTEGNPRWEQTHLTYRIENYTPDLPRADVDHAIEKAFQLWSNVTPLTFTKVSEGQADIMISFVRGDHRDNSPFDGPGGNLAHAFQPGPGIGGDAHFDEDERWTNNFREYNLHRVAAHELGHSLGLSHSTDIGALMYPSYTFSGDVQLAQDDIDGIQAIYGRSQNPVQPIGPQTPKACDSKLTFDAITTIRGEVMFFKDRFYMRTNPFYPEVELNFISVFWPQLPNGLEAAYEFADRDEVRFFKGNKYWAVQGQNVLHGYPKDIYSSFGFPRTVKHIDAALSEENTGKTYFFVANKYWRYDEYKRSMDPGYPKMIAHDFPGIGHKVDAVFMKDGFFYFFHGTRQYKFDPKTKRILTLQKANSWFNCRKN

Matrilysin = target: T2, Matrilysin (Homo sapiens, UniProt P09237); experiment: Inhibition of MMP7 (unknown origin)
T2 sequence (P09237 whole entry): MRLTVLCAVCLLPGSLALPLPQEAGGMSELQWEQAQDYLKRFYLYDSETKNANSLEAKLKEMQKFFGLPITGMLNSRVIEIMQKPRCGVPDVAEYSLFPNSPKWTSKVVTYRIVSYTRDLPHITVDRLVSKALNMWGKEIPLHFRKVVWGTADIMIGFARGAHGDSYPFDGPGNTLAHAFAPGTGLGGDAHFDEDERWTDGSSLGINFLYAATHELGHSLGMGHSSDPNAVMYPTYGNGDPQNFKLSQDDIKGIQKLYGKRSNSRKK

[3] = target: Macrophage metalloelastase (Homo sapiens, UniProt P39900); experiment: Inhibition of MMP12 (unknown origin)
[4] = target: Matrix metalloproteinase-14 (Homo sapiens, UniProt P50281); experiment: Inhibition of MMP14 (unknown origin)
[5] = target: T3, Matrix metalloproteinase-17 (Homo sapiens, UniProt Q9ULZ9); experiment: Inhibition of MMP17 (unknown origin)
T3 sequence (Q9ULZ9 whole entry): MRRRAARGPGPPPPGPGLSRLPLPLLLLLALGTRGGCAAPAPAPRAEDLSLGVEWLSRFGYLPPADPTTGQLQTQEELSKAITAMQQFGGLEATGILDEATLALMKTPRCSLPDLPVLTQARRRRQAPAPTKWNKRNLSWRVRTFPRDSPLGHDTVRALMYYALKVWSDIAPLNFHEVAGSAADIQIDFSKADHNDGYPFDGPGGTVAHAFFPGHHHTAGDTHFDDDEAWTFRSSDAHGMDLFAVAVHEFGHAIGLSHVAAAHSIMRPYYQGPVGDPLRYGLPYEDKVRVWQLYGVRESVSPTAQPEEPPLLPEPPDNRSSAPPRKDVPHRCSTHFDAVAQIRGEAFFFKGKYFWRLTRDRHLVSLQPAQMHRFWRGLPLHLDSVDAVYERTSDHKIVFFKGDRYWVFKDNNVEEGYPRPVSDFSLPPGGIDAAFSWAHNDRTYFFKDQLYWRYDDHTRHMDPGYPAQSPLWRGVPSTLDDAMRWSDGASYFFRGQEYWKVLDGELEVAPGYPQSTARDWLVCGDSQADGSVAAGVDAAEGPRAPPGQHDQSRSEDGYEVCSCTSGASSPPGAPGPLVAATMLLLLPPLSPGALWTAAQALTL

Chain of Macrophage metalloelastase (P39900 whole entry): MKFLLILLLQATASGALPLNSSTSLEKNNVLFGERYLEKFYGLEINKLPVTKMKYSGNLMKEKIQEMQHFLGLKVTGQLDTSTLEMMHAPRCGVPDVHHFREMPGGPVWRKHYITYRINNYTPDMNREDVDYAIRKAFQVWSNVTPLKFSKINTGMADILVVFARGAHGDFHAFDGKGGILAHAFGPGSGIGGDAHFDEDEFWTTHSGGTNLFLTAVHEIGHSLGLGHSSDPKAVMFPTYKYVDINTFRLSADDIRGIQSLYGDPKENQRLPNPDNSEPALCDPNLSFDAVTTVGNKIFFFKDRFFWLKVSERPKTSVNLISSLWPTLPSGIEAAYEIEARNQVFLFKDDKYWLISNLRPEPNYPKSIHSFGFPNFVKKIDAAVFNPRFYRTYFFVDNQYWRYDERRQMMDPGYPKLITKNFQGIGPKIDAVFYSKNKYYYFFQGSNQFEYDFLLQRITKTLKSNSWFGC
Chain of 72 kDa type IV collagenase (P08253 whole entry): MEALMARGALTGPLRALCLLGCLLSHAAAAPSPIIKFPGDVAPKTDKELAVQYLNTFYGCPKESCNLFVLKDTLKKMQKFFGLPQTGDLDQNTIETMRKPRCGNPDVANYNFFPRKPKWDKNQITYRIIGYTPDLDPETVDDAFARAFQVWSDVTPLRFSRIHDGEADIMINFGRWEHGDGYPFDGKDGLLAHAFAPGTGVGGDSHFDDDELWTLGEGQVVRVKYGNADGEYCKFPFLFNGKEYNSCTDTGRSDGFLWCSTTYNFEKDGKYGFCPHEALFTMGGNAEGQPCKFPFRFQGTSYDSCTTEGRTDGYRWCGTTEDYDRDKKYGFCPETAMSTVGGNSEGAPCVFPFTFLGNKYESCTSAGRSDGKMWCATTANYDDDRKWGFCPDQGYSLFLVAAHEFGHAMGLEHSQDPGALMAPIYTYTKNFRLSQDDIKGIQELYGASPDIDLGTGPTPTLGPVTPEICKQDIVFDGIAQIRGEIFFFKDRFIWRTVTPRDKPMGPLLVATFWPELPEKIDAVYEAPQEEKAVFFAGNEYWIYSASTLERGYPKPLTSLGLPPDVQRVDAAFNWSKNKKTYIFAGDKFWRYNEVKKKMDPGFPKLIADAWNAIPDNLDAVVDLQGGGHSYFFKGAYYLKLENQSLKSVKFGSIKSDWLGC
Chain of Neutrophil collagenase (P22894 whole entry): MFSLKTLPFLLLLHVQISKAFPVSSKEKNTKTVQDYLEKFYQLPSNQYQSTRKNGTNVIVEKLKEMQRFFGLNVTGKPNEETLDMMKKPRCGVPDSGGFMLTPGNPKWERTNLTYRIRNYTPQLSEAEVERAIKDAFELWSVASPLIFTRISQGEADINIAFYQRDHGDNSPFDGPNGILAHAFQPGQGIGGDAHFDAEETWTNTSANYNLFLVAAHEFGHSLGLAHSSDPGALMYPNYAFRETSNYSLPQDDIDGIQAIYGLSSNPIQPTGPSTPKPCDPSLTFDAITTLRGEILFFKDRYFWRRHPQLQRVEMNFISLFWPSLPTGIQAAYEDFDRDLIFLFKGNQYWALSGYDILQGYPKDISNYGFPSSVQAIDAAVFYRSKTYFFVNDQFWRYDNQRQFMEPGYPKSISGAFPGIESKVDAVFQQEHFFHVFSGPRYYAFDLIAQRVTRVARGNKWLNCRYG
Chain of Matrix metalloproteinase-9 (P14780 whole entry): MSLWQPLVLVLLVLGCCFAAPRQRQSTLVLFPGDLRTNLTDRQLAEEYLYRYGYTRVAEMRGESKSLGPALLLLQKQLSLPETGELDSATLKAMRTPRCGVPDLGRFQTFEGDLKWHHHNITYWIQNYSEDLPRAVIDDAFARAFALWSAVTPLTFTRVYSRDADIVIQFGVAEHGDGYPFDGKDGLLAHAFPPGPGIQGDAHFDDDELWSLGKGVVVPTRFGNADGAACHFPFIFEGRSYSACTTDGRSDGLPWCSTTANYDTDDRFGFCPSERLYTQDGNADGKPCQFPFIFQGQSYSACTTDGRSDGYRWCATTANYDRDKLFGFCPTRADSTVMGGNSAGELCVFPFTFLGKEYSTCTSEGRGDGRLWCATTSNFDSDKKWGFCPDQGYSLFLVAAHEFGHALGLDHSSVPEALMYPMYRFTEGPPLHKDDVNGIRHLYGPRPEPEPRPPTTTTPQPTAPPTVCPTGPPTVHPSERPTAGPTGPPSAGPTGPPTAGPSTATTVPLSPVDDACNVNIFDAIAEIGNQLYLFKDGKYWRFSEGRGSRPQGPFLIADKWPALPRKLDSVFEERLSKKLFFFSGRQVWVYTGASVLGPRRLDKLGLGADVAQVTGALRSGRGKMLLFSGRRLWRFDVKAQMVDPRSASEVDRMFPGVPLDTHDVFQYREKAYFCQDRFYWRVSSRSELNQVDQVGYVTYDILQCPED
Chain of Stromelysin-1 (P08254 whole entry): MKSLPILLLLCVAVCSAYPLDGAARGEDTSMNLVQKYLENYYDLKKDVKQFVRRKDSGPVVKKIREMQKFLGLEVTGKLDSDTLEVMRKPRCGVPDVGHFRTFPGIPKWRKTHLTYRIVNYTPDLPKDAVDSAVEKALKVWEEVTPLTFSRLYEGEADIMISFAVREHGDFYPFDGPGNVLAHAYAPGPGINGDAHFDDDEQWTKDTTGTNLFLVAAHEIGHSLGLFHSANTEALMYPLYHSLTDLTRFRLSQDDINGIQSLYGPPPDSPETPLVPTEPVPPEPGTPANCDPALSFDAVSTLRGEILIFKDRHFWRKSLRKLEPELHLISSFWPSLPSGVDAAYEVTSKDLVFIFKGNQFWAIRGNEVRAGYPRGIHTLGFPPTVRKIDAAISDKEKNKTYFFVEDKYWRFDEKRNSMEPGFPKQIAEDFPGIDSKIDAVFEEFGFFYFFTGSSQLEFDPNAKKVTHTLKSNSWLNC

## CC(C)N(C)c1ccc(-c2cn(-c3ccc(S(=O)(=O)C4(C(=O)NO)CCNCC4)cc3)nn2)cc1
[1]
  IC50: 3 nM
[2]
  IC50: 346 nM

## O=C1N=C(O)NC(=O)[C@@]1(c1ccccc1)N1CCC(CCO)CC1
Neutrophil collagenase
  IC50: 1700 nM
Stromelysin-1
  IC50: 30000 nM

## O=C(CC1(S(=O)(=O)c2ccc(Oc3ccccc3)cc2)CCOCC1)NO
Interstitial collagenase
  Ki: 23 nM

## NC(=O)CC1CCCc2sc3nc(C(=O)NCc4ccc5c(c4)NC(=O)CO5)[nH]c(=O)c3c21 (racemic)
Interstitial collagenase
  IC50: > 2500 nM
Matrilysin
  IC50: > 2500 nM
Stromelysin-1
  IC50: > 2500 nM
[1]
  IC50: > 2500 nM
[2]
  IC50: > 2500 nM
[3]
  IC50: > 2500 nM
[4]
  IC50: > 2500 nM

## O=C(OCc1ccccc1)c1cn2c(=O)n(Cc3ccccc3)c(=O)cc2s1
Interstitial collagenase
  IC50: > 30000 nM
Matrilysin
  IC50: > 30000 nM
Neutrophil collagenase
  IC50: > 30000 nM
Stromelysin-1
  IC50: > 30000 nM
[1]
  IC50: > 30000 nM
[2]
  IC50: > 30000 nM
[3]
  IC50: > 30000 nM
[4]
  IC50: > 30000 nM
[5]
  IC50: > 30000 nM

## CN(C)c1ccc(-c2cn(-c3ccc(S(=O)(=O)C4(C(=O)NO)CCNCC4)cc3)nn2)cc1
[1]
  IC50: 1.7 nM
[2]
  IC50: 43.9 nM

## Cn1c(=O)n(Cc2ccc(C(=O)O)cc2)c(=O)c2cc(C#CCc3ccccc3)ccc21
Interstitial collagenase
  IC50: > 30000 nM
Matrilysin
  IC50: > 30000 nM
Neutrophil collagenase
  IC50: > 30000 nM
Stromelysin-1
  IC50: > 30000 nM
[1]
  IC50: > 30000 nM
[2]
  IC50: > 30000 nM
[3]
  IC50: > 30000 nM
[4]
  IC50: > 30000 nM
[5]
  IC50: > 30000 nM

## CC#CCOc1ccc(Oc2ccc(S(=O)(=O)NC(C(=O)NO)C(C)C)cc2)cc1 (stereo not drawn)
Interstitial collagenase
  IC50: 40 nM
